Measurements from US20090023884A1, “METHOD FOR STORAGE AND/OR TRANSPORT OF BISPHENOLACETONE AND METHOD FOR PRODUCING AROMATIC POLYCARBONATE” (priority 2007, published 2009).

Columns and labels:
Assay type in all cases: physicochemical
[1] = Extended storage of acetone/bisphenolacetone liquid mixture at storage temperature range; settings: liquid mixture with acetone
[2] = Stability experiments: 4-isopropenyl phenol (IPP) formation in BPA solutions by GC-MS; settings: for IPP signal intensity where solvent is acetone / IPP signal intensity where solvent is phenol: BPA:solvent 6:4 by weight, GC-MS m/z=134 relative to untreated standard BPA sample
Procedure: BPA and a solvent were mixed to produce solutions (containing no solids) having a weight ratio of BPA to solvent of 6:4. The solvent was either acetone (present invention) or phenol (comparative). Where the solvent was acetone the solution was obtained at a temperature of 35° C. and then kept at that temperature. However, in view of the above solubility experiments, where the solvent was phenol the solution could only be obtained at a temperature of 120° C. and was then kept at that temperature. The solutions were heated for a certain time period (3, 7 or 14 days) at either 35° C. (acetone) or 120° C. (phenol). At the end of each time period, the amount of 4-isopropenyl phenol (IPP) was determined by means of GC-MS. Table 2 mentions the intensity of the GC-MS signal at m/z=134, which signal is characteristic for IPP, relative to a standard BPA sample that had not been subjected to said temperature treatment.

[3] = Solubility experiments: BPA dissolved in acetone or phenol in oil bath at set temperature; settings: weight ratio BPA to solvent 7.5/2.5
Procedure: 0.6 gram of bisphenolacetone (BPA) powder was placed in a 10 ml graduated tube with a thread seal. Prior to the experiment, BPA flakes were crushed to said powder to ensure uniform packing density at the bottom of the tube. Then 0.2 gram of a solvent was added to the BPA. The solvent was either acetone (present invention) or phenol (comparative). Thus, the weight ratio of BPA to solvent was 7.5/2.5. The tube was then immersed in an oil bath at a certain temperature, and mixed up to full equilibrium. The foregoing was repeated except that the temperature of the oil bath was set at different values. Table 1 mentions the amounts of BPA dissolved in either acetone or phenol at temperatures ranging from 30 to 110° C. The amount of BPA dissolved was calculated from the loss of BPA from the solids layer at the bottom of the tube.

bisphenolacetone and solution properties upon extended storage [1]: remain unchanged
IPP signal intensity where solvent is acetone ([2]; 3 days at 35 °C): 0.1
IPP signal intensity where solvent is phenol ([2]; 3 days at 120 °C): 14.8
IPP signal intensity where solvent is acetone ([2]; 7 days at 35 °C): 0.0
IPP signal intensity where solvent is phenol ([2]; 7 days at 120 °C): 22.3
IPP signal intensity where solvent is acetone ([2]; 14 days at 35 °C): 0.0
IPP signal intensity where solvent is phenol ([2]; 14 days at 120 °C): 35.0
thermal degradation of BPA into IPP ([2]; solvent phenol, solution kept at 120 °C): thermally degraded into IPP
Vol. % of BPA dissolved in acetone ([3]; 30 °C): 61 Vol. %
Vol. % of BPA dissolved in acetone ([3]; 60 °C): 72 Vol. %
Vol. % of BPA dissolved in phenol ([3]; 60 °C): 0 Vol. %
Vol. % of BPA dissolved in acetone ([3]; 75 °C): 72 Vol. %
Vol. % of BPA dissolved in phenol ([3]; 75 °C): 0 Vol. %
Vol. % of BPA dissolved in acetone ([3]; 90 °C): 74 Vol. %
Vol. % of BPA dissolved in phenol ([3]; 90 °C): 0 Vol. %
Vol. % of BPA dissolved in acetone ([3]; 110 °C): 74 Vol. %
Vol. % of BPA dissolved in phenol ([3]; 110 °C): 61 Vol. %
Compound: CC(C)(c1ccc(O)cc1)c1ccc(O)cc1 [BPA, 2,2-bis(4-hydroxyphenyl)propane]
thermal degradation of BPA ([2]; solution in acetone, storage at 35 °C): does not result in any substantial thermal degradation
